# According to US11497212B2, “Substituted thiophenyl uracils, salts thereof and the use thereof as herbicidal agents” (Syngenta Crop Protection AG, priority 2017, dated 2022):
# Assays:
# Type in all cases: in vivo
# Glycine max [1] = assay: Crop compatibility pre-emergence (greenhouse pot trial); conditions: application rate 80 g/ha, effect vs untreated controls
# Procedure, shortened: (§1)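 Crop plants were sown and covered with soil, then the soil surface was treated with formulated compound as an aqueous suspension or emulsion containing 0.5% additive, applied at a water rate equivalent to 600 L/ha. Damage was rated visually in percent relative to untreated pots after roughly three weeks in the greenhouse.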
# Zea mays [2] = assay: as above; conditions: application rate 80 g/ha, effect vs untreated controls
# Procedure, shortened: as §1
# Triticum aestivum = assay: Crop compatibility post-emergence (greenhouse pot trial)
# Procedure, shortened: (§2)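 Visual % damage vs untreated controls, ~3 wk post-spray (100% = plants died, 0% = as control). Plants in sandy loam, greenhouse, sprayed at one-leaf stage (2–3 wk after sowing); WP/EC in water + 0.5% additive, 600 L/ha.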
# Glycine max [3] = assay: as above
# Procedure, shortened: as §2
# Zea mays [4] = assay: as above
# Procedure, shortened: as §2
# Oryza sativa = assay: as above
# Procedure, shortened: as §2
# Hordeum murinum [5] = assay: Herbicidal action pre-emergence (greenhouse pot trial); conditions: application rate 320 g/ha
# Procedure, shortened: (§3)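 Efficacy (%) was estimated visually about 3 wk post-application by comparing treated pots with untreated controls, where 0% denotes plants resembling controls and 100% denotes dead plants. Dose was 320 g/ha or less.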
# Abutilon theophrasti [6] = assay: as above; conditions: application rate 320 g/ha, scored after about 3 weeks
# Procedure, shortened: as §3
# Pharbitis purpurea [7] = assay: as above; conditions: application rate 320 g/ha
# Procedure, shortened: as §3
# Matricaria inodora [8] = assay: as above; conditions: application rate 320 g/ha, scored after about 3 weeks
# Procedure, shortened: as §3
# Viola tricolor [9] = assay: as above; conditions: application rate 320 g/ha, scored after about 3 weeks
# Procedure, shortened: as §3
# Cyperus esculentus = assay: as above; conditions: application rate 320 g/ha
# Procedure, shortened: as §3
# Veronica persica [10] = assay: as above; conditions: application rate 320 g/ha
# Procedure, shortened: as §3
# Stellaria media [11] = assay: as above; conditions: application rate 320 g/ha, scored after about 3 weeks
# Procedure, shortened: as §3
# Setaria viridis [12] = assay: as above; conditions: application rate 320 g/ha, scored after about 3 weeks
# Procedure, shortened: as §3
# Amaranthus retroflexus [13] = assay: as above; conditions: application rate 320 g/ha, scored after about 3 weeks
# Procedure, shortened: as §3
# Alopecurus myosuroides [14] = assay: as above; conditions: application rate 320 g/ha, scored after about 3 weeks
# Procedure, shortened: as §3
# Avena fatua [15] = assay: as above; conditions: application rate 320 g/ha
# Procedure, shortened: as §3
# Echinochloa crus-galli [16] = assay: as above; conditions: application rate 320 g/ha, scored after about 3 weeks
# Procedure, shortened: as §3
# Lolium rigidum [17] = assay: as above; conditions: application rate 320 g/ha
# Procedure, shortened: as §3
# Hordeum murinum [18] = assay: Herbicidal action post-emergence (greenhouse pot trial); conditions: scored visually after about 3 weeks vs untreated controls
# Procedure, shortened: (§4)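 One-leaf-stage seedlings, 2–3 weeks old, are treated on their green parts with an aqueous emulsion or suspension of the test compound (WP or EC, 0.5% additive) using 600 L/ha of water at up to 80 g/ha. About 3 weeks on, percent kill is estimated visually versus untreated plants.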
# Abutilon theophrasti [19] = assay: as above; conditions: scored visually after about 3 weeks vs untreated controls
# Procedure, shortened: as §4
# Pharbitis purpurea [20] = assay: as above
# Procedure, shortened: as §4
# Polygonum convolvulus = assay: as above; conditions: scored visually after about 3 weeks vs untreated controls
# Procedure, shortened: as §4
# Matricaria inodora [21] = assay: as above; conditions: scored visually after about 3 weeks vs untreated controls
# Procedure, shortened: as §4
# Viola tricolor [22] = assay: as above
# Procedure, shortened: as §4
# Veronica persica [23] = assay: as above
# Procedure, shortened: as §4
# Stellaria media [24] = assay: as above; conditions: scored visually after about 3 weeks vs untreated controls
# Procedure, shortened: as §4
# Setaria viridis [25] = assay: as above; conditions: scored visually after about 3 weeks vs untreated controls
# Procedure, shortened: as §4
# Amaranthus retroflexus [26] = assay: as above; conditions: scored visually after about 3 weeks vs untreated controls
# Procedure, shortened: as §4
# Echinochloa crus-galli [27] = assay: as above; conditions: scored visually after about 3 weeks vs untreated controls
# Procedure, shortened: as §4
# Alopecurus myosuroides [28] = assay: as above; conditions: application rate 20 g/ha, scored visually after about 3 weeks vs untreated controls
# Procedure, shortened: as §4
# Avena fatua [29] = assay: as above; conditions: application rate 20 g/ha, scored visually after about 3 weeks vs untreated controls
# Procedure, shortened: as §4
# Digitaria sanguinalis = assay: as above; conditions: application rate 20 g/ha
# Procedure, shortened: as §4
# Lolium rigidum [30] = assay: as above; conditions: application rate 20 g/ha, scored visually after about 3 weeks vs untreated controls
# Procedure, shortened: as §4
Structure (SMILES),Oryza sativa (Efficacy in %) (Oryza sativa; application rate 5 g/ha) [%],Hordeum murinum (Efficacy in %) (Hordeum murinum [5]) [%],Abutilon theophrasti (Efficacy in %) (Abutilon theophrasti [6]) [%],Pharbitis purpurea (Efficacy in %) (Pharbitis purpurea [7]) [%],Matricaria inodora (Efficacy in %) (Matricaria inodora [8]) [%],Viola tricolor (Efficacy in %) (Viola tricolor [9]) [%],Cyperus esculentus (Efficacy in %) (Cyperus esculentus) [%],Veronica persica (Efficacy in %) (Veronica persica [10]) [%],Stellaria media (Efficacy in %) (Stellaria media [11]) [%],Setaria viridis (Efficacy in %) (Setaria viridis [12]) [%],Amaranthus retroflexus (Efficacy in %) (Amaranthus retroflexus [13]) [%],Avena fatua (Efficacy in %) (Avena fatua [15]) [%],Echinochloa crus-galli (Efficacy in %) (Echinochloa crus-galli [16]) [%],Lolium rigidum (Efficacy in %) (Lolium rigidum [17]) [%],Abutilon theophrasti (Efficacy in %) (Abutilon theophrasti [19]; application rate 80 g/ha) [%],Pharbitis purpurea (Efficacy in %) (Pharbitis purpurea [20]; application rate 80 g/ha) [%],Polygonum convolvulus (Efficacy in %) (Polygonum convolvulus; application rate 80 g/ha) [%],Matricaria inodora (Efficacy in %) (Matricaria inodora [21]; application rate 80 g/ha) [%],Viola tricolor (Efficacy in %) (Viola tricolor [22]; application rate 80 g/ha) [%],Veronica persica (Efficacy in %) (Veronica persica [23]; application rate 80 g/ha) [%],also measured
CC(Sc1cc(-n2c(=O)cc(C(F)(F)F)n(C)c2=O)c(F)cc1Cl)C(=O)OCC1CCCO1 (stereo not shown) [I.1-71],20,90,100,100,100,100,80,100,100,100,100,90,100,90,100,100,100,100,100,100,Glycine max (Efficacy in %) (Glycine max [1]): 0%; Zea mays (Efficacy in %) (Zea mays [2]): 0%; Triticum aestivum (Efficacy in %) (Triticum aestivum; application rate 80 g/ha): 20%; Glycine max (Efficacy in %) (Glycine max [3]; application rate 20 g/ha): 20%; Zea mays (Efficacy in %) (Zea mays [4]; application rate 80 g/ha): 20%; Alopecurus myosuroides (Efficacy in %) (Alopecurus myosuroides [14]): 100%; Hordeum murinum (Efficacy in %) (Hordeum murinum [18]; application rate 80 g/ha): 80%; Stellaria media (Efficacy in %) (Stellaria media [24]; application rate 80 g/ha): 100%; Setaria viridis (Efficacy in %) (Setaria viridis [25]; application rate 80 g/ha): 100%; Amaranthus retroflexus (Efficacy in %) (Amaranthus retroflexus [26]; application rate 80 g/ha): 100%; Echinochloa crus-galli (Efficacy in %) (Echinochloa crus-galli [27]; application rate 80 g/ha): 100%
CC(Sc1cc(-n2c(=O)cc(C(F)(F)F)n(C)c2=O)c(F)cc1Cl)C(=O)OC1CCOC1 (stereo not shown) [I.1-121],–,–,–,–,–,–,–,–,–,–,–,–,–,–,–,–,–,–,–,–,Hordeum murinum (Efficacy in %) (Hordeum murinum [18]; application rate 20 g/ha): 80%; Abutilon theophrasti (Efficacy in %) (Abutilon theophrasti [19]; application rate 20 g/ha): 100%; Pharbitis purpurea (Efficacy in %) (Pharbitis purpurea [20]; application rate 20 g/ha): 100%; Polygonum convolvulus (Efficacy in %) (Polygonum convolvulus; application rate 20 g/ha): 100%; Matricaria inodora (Efficacy in %) (Matricaria inodora [21]; application rate 20 g/ha): 100%; Veronica persica (Efficacy in %) (Veronica persica [23]; application rate 20 g/ha): 100%; Stellaria media (Efficacy in %) (Stellaria media [24]; application rate 20 g/ha): 100%; Setaria viridis (Efficacy in %) (Setaria viridis [25]; application rate 20 g/ha): 100%; Amaranthus retroflexus (Efficacy in %) (Amaranthus retroflexus [26]; application rate 20 g/ha): 100%; Avena fatua (Efficacy in %) (Avena fatua [29]): 80%; Echinochloa crus-galli (Efficacy in %) (Echinochloa crus-galli [27]; application rate 20 g/ha): 100%; Lolium rigidum (Efficacy in %) (Lolium rigidum [30]): 80%; Digitaria sanguinalis (Efficacy in %) (Digitaria sanguinalis): 100%
CC(Sc1cc(-n2c(=O)cc(C(F)(F)F)n(C)c2=O)c(F)cc1Cl)C(=O)NCC1CS(=O)(=O)CCO1 (stereo not shown) [I.1-333],–,100,100,100,100,100,80,100,100,90,100,100,100,100,100,80,100,100,100,80,Glycine max (Efficacy in %) (Glycine max [1]): 0%; Zea mays (Efficacy in %) (Zea mays [2]): 20%; Triticum aestivum (Efficacy in %) (Triticum aestivum; application rate 20 g/ha): 10%; Glycine max (Efficacy in %) (Glycine max [3]; application rate 20 g/ha): 20%; Zea mays (Efficacy in %) (Zea mays [4]; application rate 80 g/ha): 0%; Oryza sativa (Efficacy in %) (Oryza sativa; application rate 80 g/ha): 0%; Alopecurus myosuroides (Efficacy in %) (Alopecurus myosuroides [14]): 100%; Amaranthus retroflexus (Efficacy in %) (Amaranthus retroflexus [26]; application rate 80 g/ha): 100%

# More lines, main results first:
Oryza sativa (Efficacy in %) (Oryza sativa; application rate 5 g/ha) [%],Structure (SMILES),Hordeum murinum (Efficacy in %) (Hordeum murinum [5]) [%],Abutilon theophrasti (Efficacy in %) (Abutilon theophrasti [6]) [%],Pharbitis purpurea (Efficacy in %) (Pharbitis purpurea [7]) [%],Matricaria inodora (Efficacy in %) (Matricaria inodora [8]) [%],Viola tricolor (Efficacy in %) (Viola tricolor [9]) [%],Cyperus esculentus (Efficacy in %) (Cyperus esculentus) [%],Veronica persica (Efficacy in %) (Veronica persica [10]) [%],Stellaria media (Efficacy in %) (Stellaria media [11]) [%],Setaria viridis (Efficacy in %) (Setaria viridis [12]) [%],Amaranthus retroflexus (Efficacy in %) (Amaranthus retroflexus [13]) [%],Avena fatua (Efficacy in %) (Avena fatua [15]) [%],Echinochloa crus-galli (Efficacy in %) (Echinochloa crus-galli [16]) [%],Lolium rigidum (Efficacy in %) (Lolium rigidum [17]) [%],Abutilon theophrasti (Efficacy in %) (Abutilon theophrasti [19]; application rate 80 g/ha) [%],Pharbitis purpurea (Efficacy in %) (Pharbitis purpurea [20]; application rate 80 g/ha) [%],Polygonum convolvulus (Efficacy in %) (Polygonum convolvulus; application rate 80 g/ha) [%],Matricaria inodora (Efficacy in %) (Matricaria inodora [21]; application rate 80 g/ha) [%],Viola tricolor (Efficacy in %) (Viola tricolor [22]; application rate 80 g/ha) [%],Veronica persica (Efficacy in %) (Veronica persica [23]; application rate 80 g/ha) [%],also measured
0,CC(Sc1cc(-n2c(=O)cc(C(F)(F)F)n(C)c2=O)c(F)cc1Cl)C(=O)OC1COC1 (stereo not shown) [I.1-115],–,–,–,–,–,–,–,–,–,–,–,–,–,–,–,–,–,–,–,Zea mays (Efficacy in %) (Zea mays [4]; application rate 5 g/ha): 20%; Hordeum murinum (Efficacy in %) (Hordeum murinum [18]; application rate 20 g/ha): 100%; Abutilon theophrasti (Efficacy in %) (Abutilon theophrasti [19]; application rate 20 g/ha): 100%; Pharbitis purpurea (Efficacy in %) (Pharbitis purpurea [20]; application rate 20 g/ha): 100%; Polygonum convolvulus (Efficacy in %) (Polygonum convolvulus; application rate 20 g/ha): 100%; Matricaria inodora (Efficacy in %) (Matricaria inodora [21]; application rate 20 g/ha): 100%; Viola tricolor (Efficacy in %) (Viola tricolor [22]; application rate 20 g/ha): 100%; Veronica persica (Efficacy in %) (Veronica persica [23]; application rate 20 g/ha): 100%; Stellaria media (Efficacy in %) (Stellaria media [24]; application rate 20 g/ha): 100%; Setaria viridis (Efficacy in %) (Setaria viridis [25]; application rate 20 g/ha): 100%; Amaranthus retroflexus (Efficacy in %) (Amaranthus retroflexus [26]; application rate 20 g/ha): 100%; Alopecurus myosuroides (Efficacy in %) (Alopecurus myosuroides [28]): 80%; Avena fatua (Efficacy in %) (Avena fatua [29]): 80%; Digitaria sanguinalis (Efficacy in %) (Digitaria sanguinalis): 100%
10,COCCOC(=O)CSc1cc(-n2c(=O)cc(C(F)(F)F)n(C)c2=O)c(F)cc1Cl [I.8-1],90,100,100,100,100,90,100,100,100,100,80,100,90,100,100,100,100,100,100,Glycine max (Efficacy in %) (Glycine max [3]; application rate 5 g/ha): 20%; Zea mays (Efficacy in %) (Zea mays [4]; application rate 5 g/ha): 20%; Stellaria media (Efficacy in %) (Stellaria media [24]; application rate 80 g/ha): 100%; Setaria viridis (Efficacy in %) (Setaria viridis [25]; application rate 80 g/ha): 100%; Amaranthus retroflexus (Efficacy in %) (Amaranthus retroflexus [26]; application rate 80 g/ha): 100%; Echinochloa crus-galli (Efficacy in %) (Echinochloa crus-galli [27]; application rate 80 g/ha): 100%
